pIC50: −log10 of the molar value. “And” between values parts separate entries of the source, which are not always exact repeats. Identical values can stand only once. Counter-ions that a name gives are not always drawn.
Key:
[1] = target: T1, human FAAH (Homo sapiens, UniProt O00519); experiment: Assay Method 1: FAAH assay, anandamide hydrolysis in cell homogenate; type: biochemical; details: average value (standard error of the mean in parenthesis); 3H-AEA 80 nM, 1 h rt
T1 construct: expressed in transfected cells
T1 sequence (O00519 1-579): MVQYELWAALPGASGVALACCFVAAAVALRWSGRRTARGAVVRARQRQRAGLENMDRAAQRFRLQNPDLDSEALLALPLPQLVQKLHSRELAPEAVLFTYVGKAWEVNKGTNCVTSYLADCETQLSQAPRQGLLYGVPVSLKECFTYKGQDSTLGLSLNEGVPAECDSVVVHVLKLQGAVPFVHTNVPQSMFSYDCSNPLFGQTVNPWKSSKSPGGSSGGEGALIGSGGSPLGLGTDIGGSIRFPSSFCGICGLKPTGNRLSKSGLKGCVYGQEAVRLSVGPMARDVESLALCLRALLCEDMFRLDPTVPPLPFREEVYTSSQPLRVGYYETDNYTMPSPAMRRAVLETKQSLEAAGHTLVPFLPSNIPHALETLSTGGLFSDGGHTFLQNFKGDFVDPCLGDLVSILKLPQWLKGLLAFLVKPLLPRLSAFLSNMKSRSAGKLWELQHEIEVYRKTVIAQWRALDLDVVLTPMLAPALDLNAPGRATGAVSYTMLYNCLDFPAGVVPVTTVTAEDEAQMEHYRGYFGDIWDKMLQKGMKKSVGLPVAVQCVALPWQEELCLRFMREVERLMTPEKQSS
Description: A. Transfection of Cells with Human FAAH
A 10-cm tissue culture dish with a confluent monolayer of SK-N-MC cells was split 2 days (d) prior to transfection. Using sterile technique, the media was removed and the cells were detached from the dish by the addition of trypsin. One fifth of the cells were then placed onto a new 10-cm dish. Cells were grown in a 37° C. incubator with 5% CO2 in Minimal Essential Media Eagle with 10% Fetal Bovine Serum. After 2 d, cells were approximately 80% confluent. These cells were removed from the dish with trypsin and pelleted in a clinical centrifuge. The pellet was re-suspended in 400 μL complete media and transferred to an electroporation cuvette with a 0.4 cm gap between the electrodes. Supercoiled human FAAH cDNA (1 μg), corresponding to NCBI accession NM_001441, was added to the cells and mixed. The voltage for the electroporation was set at 0.25 kV, and the capacitance was set at 960 μF. After electroporation, the cells were diluted into complete media (10 mL) and plated onto four 10-cm dishes. Due to variability in the efficiency of electroporation, four different concentrations of cells were plated. The ratios used were 1:20, 1:10, and 1:5, with the remainder of the cells being added to the fourth dish. The cells were allowed to recover for 24 h before adding the selection media (complete media with 600 μg/mL G418). After 10 d, dishes were analyzed for surviving colonies of cells. Dishes with well-isolated colonies were used. Cells from individual colonies were isolated and tested.
T84 frozen cell pellets or transfected SK-N-MC cells (contents of 1×15 cm culture dishes) were homogenized in 50 mL of FAAH assay buffer (125 mM Tris, 1 mM EDTA, 0.2% Glycerol, 0.02% Triton X-100, 0.4 mM Hepes, pH 9). The assay mixture consisted of 50 μL of the cell homogenate, 10 μL of the test compound, and 40 μL of anandamide [1-^3H-ethanolamine] (^3H-AEA, Perkin-Elmer, 10.3 Ci/mmol), which was added last, for a final tracer concentration of 80 nM. The reaction mixture was incubated at rt for 1 h. […]

[2] = tested on: Langendorff isolated heart; experiment: Assay Method 3: Langendorff isolated heart protocol; set-up: species or system Sprague-Dawley rats; details: isolated rat heart; for effect on left ventricular developed pressure (LVDevP): 30 μM; for effect on left ventricular systolic pressure (LVSP): maximum concentration tested 30 μM; for hearts showing greater than 30% slowing of heart rate: perfused at 30 μM; for hearts showing greater than 30% heart rate slowing: bath concentration 26 μM
Description: Langendorff Isolated Heart Protocol
Male Sprague-Dawley rats (300-500 g) were anesthetized by an intraperitoneal injection of sodium pentobarbital (50 mg/kg), and then euthanized via cardiectomy. Hearts were rapidly removed, mounted on a
A ventricular drain and fluid-filled latex balloon was secured in the left ventricle with a purse string suture at the atrial appendage. Hearts were not paced. […] The hearts were maintained at approximately 37° C. while suspended in a glass chamber and bathed with Krebs-Henseleit buffer. The latex balloon in the left ventricle (LV) was expanded with water to achieve a LV end-diastolic pressure (LVEDP) of approximately 10-15 mmHg. The balloon was connected via tubing to a pressure transducer to measure LVEDP, LV […] pressure (LVDP) and LV systolic pressure (LVSP). Coronary perfusion pressure (CPP) was measured with a pressure transducer connected to a side-arm port of the aortic cannula.
Individual hearts were equilibrated for approximately 10-15 minutes. Following this equilibration period, baseline measurements were collected for approximately 15 minutes. After this period, a first heart was exposed to test compound for a total 75 min (comprising five increasing concentrations of test compound for approximately 15 minutes at each concentration) with measurements collected continuously. Test compound was dissolved in DMSO and then added directly to the experiment perfusion medium.
A one mL sample of perfusion medium was taken from the heart exudate at the end of each 15 minute monitoring period. The samples were frozen on dry ice, stored in a freezer set to maintain −80° C. until analysis. At the conclusion of the experiment, the hearts were frozen with liquid nitrogen and stored in a freezer set to maintain a temperature of −80° C. until analyzed.

| SMILES | pIC50 [1] | effect on left ventricular developed pressure (LVDevP) [2] | effect on left ventricular systolic pressure (LVSP) [2] | hearts showing greater than 30% slowing of heart rate [2] | hearts showing greater than 30% heart rate slowing [2] | hearts showing greater than 30% heart rate slowing ([2]; listed as 4-[3-(4-bromophenoxy)benzyl]-N-pyridin-3-ylpiperazine-1-carboxamide bis-hydrochl) | effect on left ventricular systolic pressure (LVSP) ([2]; listed as N-pyridin-3-yl-4-{3-[4-(trifluoromethyl)phenoxy]benzyl}piperazine-1-carboxamide , bis-hydrochloride dihydrate) | effect on left ventricular systolic pressure (LVSP) ([2]; listed as N-pyridin-3-yl-4-{3-[4-(trifluoromethyl)phenoxy]benzyl}piperazine-1-carboxamide, bis-hydrochloride dihydrate) |
| --- | --- | --- | --- | --- | --- | --- | --- | --- |
| O=C(Nc1cccnc1)N1CCN(Cc2cccc(Oc3ccc(Cl)cc3)c2)CC1 [4-({3-[(4-Chlorophenyl)oxy]phenyl}methyl)-N-pyridin-3-ylpiperazine-1-carboxamide] | 8.62 | near-doubling | marked increase | all hearts (n=4) and 4/4 | – | – | – | – |
| O=C(Nc1cccnc1)N1CCN(Cc2cccc(Oc3ccc(Br)cc3)c2)CC1 [4-[3-(4-Bromophenoxy)benzyl]-N-pyridin-3-ylpiperazine-1-carboxamide] | 9.00 | – | – | – | 3/4 | three of four | – | – |
| O=C(Nc1cccnc1)N1CCN(Cc2cccc(Oc3ccc(C(F)(F)F)cc3)c2)CC1 [Example 1, N-Pyridin-3-yl-4-{3-[4-(trifluoromethyl)phenoxy]benzyl}piperazine-1-carboxamide, bis-hydrochloride dihydrate] | 9.00 | decrease | – | two of five | – | – | did not induce an abrupt increase | did not |

— US20120225097A1, “PIPERAZINECARBOXAMIDE DERIVATIVE USEFUL AS A MODULATOR OF FATTY ACID AMIDE HYDROLASE (FAAH)” (priority 2009, published 2012)
